Earlier results as cited in patent US6486182B1, “Mutual prodrugs of amlodipine and atorvastatin” (Pfizer Inc, priority 1999, dated 2002).

How the values were obtained:
[1] = system: smooth muscle cell migration; details: see PCT/EP95/00847
calcium channel = details: see PCT/EP94/02697

CCOC(=O)C1=C(COCCN)NC(C)=C(C(=O)OC)C1c1ccccc1Cl (single isomer, unassigned) [R(+) isomer, Amlodipine]
inhibition of smooth muscle cell migration [1]: potent inhibitor | calcium channel blocking activity (calcium channel): little or no calcium channel blocking activity
